Measurements as given in US8399482B2, “6-substituted isoquinolines and isoquinolinones” (Sanofi, priority 2008, dated 2013).
pIC50: −log10 of the molar value.

Key:
Type in all cases: biochemical
[1] = biological target: T1, human recombinant ROCK II (Homo sapiens, UniProt O75116); assay: Determination of Rho kinase inhibition (ROCK II, Caliper peptide phosphorylation assay); settings: respective form (salt or free base) as obtained in the examples, 60 min at 32° C.
T1 construct: recombinant human ROCK-II residues 11-552; His6 (N); purchased Millipore GmbH, Schwalbach, Germany
Description: To measure Rho-kinase inhibition, IC50 values were determined according to the following protocol:
Active human recombinant ROCK II (N-terminal His6-tagged recombinant human ROCK-II residues 11-552) was purchased from Millipore GmbH, Schwalbach, Germany. The peptide substrate, Fluorescein-[…]-COOH, was obtained from JPT Peptide Technologies, Berlin, Germany. Adenosine-5′-triphosphate (ATP), bovine serum albumine (BSA), dimethylsulphoxide (DMSO), 4-(2-hydroxyethyl)piperazine-1-ethanesulfonic acid (Hepes), Brij-35, dithiothreitol (DTT) and Pluronic F-68 were purchased from Sigma-Aldrich, Munich, Germany. Tris(hydroxymethyl)-aminomethane (Tris), magnesium chloride, NaOH, 1M HCl and EDTA were obtained from Merck Biosciences, Darmstadt, Germany. “Complete” protease inhibitor was from Roche Diagnostics, Mannheim, Germany. Test compounds were diluted to the appropriate concentrations in buffer 1 (25 mM Tris-HCl, pH 7.4, 5 mM MgCl2, 2 mM DTT, 0.02% (w/v) BSA, 0.01% Pluronic F-68 and 3% DMSO). The ROCK II enzyme was diluted to a concentration of 100 ng/mL in buffer 2 (25 mM Tris-HCl, pH 7.4, 5 mM MgCl2, 2 mM DTT and 0.02% (w/v) BSA). The peptide substrate and ATP were diluted to concentrations of 3 μM and 120 μM, respectively, in the buffer 2. Two μl of the compound solution were mixed with 2 μl of the diluted enzyme in a 384-well small volume microtiter plate (Greiner, Bio-One, Frickenhausen, Germany), and the kinase reaction was initiated by addition of 2 μl of the solution containing peptide substrate and ATP. After 60 min incubation at 32° C., the reaction was stopped by addition of 20 μl of a solution containing 100 mM Hepes-NaOH, pH 7.4, 0.015% (v/v) Brij-35, 45 mM EDTA and 0.227% chip coating reagent 1 (Caliper Lifescience Inc, Hopkinton, Mass.). Phosphorylation of the substrate peptide was then detected on a Caliper 3000 instrument essentially as described by Pommereau et al (J. Biomol. Screening 2004, 9(5), 409-416). Separation conditions were as follows: Pressure −1.3 psi, upstream voltage −1562 V, downstream voltage −500 V, sample sip time 200 ms. Positive controls (buffer 1 instead of compound) and negative controls (buffer 1 instead of compound and buffer 2 instead of ROCK II) were run in parallel on each plate.
The following products/compounds were tested in said assay by using the respective form (salt or free base) obtained as in the examples described above and the following activities were measured

[2] = biological target: T2, recombinant human PKA (Homo sapiens, UniProt P17612); assay: Determination of Protein Kinase A inhibition (selectivity); settings: from IC50 values
T2 construct: recombinant human PKA (residues 1-351, N-terminal His-tag); His-tag (N); purchased Invitrogen, Karlsruhe, Germany
Description: (§1) 2) Determination of Protein Kinase a and Protein Kinase G Inhibition
(§2) To measure PKA and PKG1-beta inhibition, IC50 values were determined according to the following protocol:
(§3) Active recombinant human PKG1-beta (full-length, with N-terminal His-tag) was purchased from Millipore GmbH, Schwalbach, Germany. Active recombinant human PKA (residues 1-351, N-terminal His-tag) was obtained from Invitrogen, Karlsruhe, Germany. The peptide substrate, Fluorescein-[…]-COOH, was obtained from JPT Peptide Technologies, Berlin, Germany. Adenosine-5′-triphosphate (ATP), bovine serum albumine (BSA), dimethylsulphoxide (DMSO), 4-(2-Hydroxyethyl)piperazine-1-ethanesulfonic acid (Hepes), Brij-35, dithiothreitol (DTT) and Pluronic F-68 were purchased from Sigma-Aldrich, Munich, Germany. Tris(hydroxymethyl)-aminomethane (Tris), magnesium chloride, NaOH, 1M HCl and EDTA were obtained from Merck Biosciences, Darmstadt, Germany. “Complete” protease inhibitor was from Roche Diagnostics, Mannheim, Germany. Test compounds were diluted to the appropriate concentrations in buffer 1 (25 mM Tris-HCl, pH 7.4, 5 mM MgCl2, 2 mM DTT, 0.02% (w/v) BSA, 0.01% Pluronic F-68 and 3% DMSO). PKG1-beta and PKA were diluted to concentrations of 150 ng/ml and 30 ng/ml, respectively, in buffer 2. The peptide substrate and ATP were diluted to concentrations of 3 μM and 120 μM, respectively, in the buffer 2. Two μl of the compound solution were mixed with 2 μl of the diluted enzyme in a 384-well small volume microtiter plate (Greiner, Bio-One, Frickenhausen, Germany), and the kinase reaction was initiated by addition of 2 μl of the solution containing peptide substrate and ATP. After 60 min incubation at 32° C., the reaction was stopped by addition of 20 μl of a solution containing 100 mM Hepes-NaOH, pH 7.4, 0.015% (v/v) Brij-35, 45 mM EDTA and 0.227% chip coating reagent 1 (Caliper Lifescience Inc, Hopkinton, Mass.). Phosphorylation of the substrate peptide was then detected on a Caliper 3000 instrument essentially as described by Pommereau et al (J. Biomol. Screening 9(5), 409-416, 2004). Separation conditions were as follows: Pressure −1.3 psi, upstream voltage −1562 V, downstream voltage −500 V, sample sip time 200 ms, Positive controls (buffer 1 instead of compound) and negative controls (buffer 1 instead of compound and buffer 2 instead of kinase solution) were run in parallel on each plate. The following products/compounds were tested in said assay by using the respective form (salt or free base) obtained as in the examples described above and the following activities were measured.

[3] = biological target: T3, recombinant human PKG1-beta (Homo sapiens, UniProt Q13976); assay: Determination of Protein Kinase G inhibition (selectivity); settings: from IC50 values
T3 construct: PKG1-beta (full-length, with N-terminal His-tag); His-tag (N); purchased Millipore GmbH, Schwalbach, Germany
T3 sequence (Q13976 1-686 isoform Q13976-2): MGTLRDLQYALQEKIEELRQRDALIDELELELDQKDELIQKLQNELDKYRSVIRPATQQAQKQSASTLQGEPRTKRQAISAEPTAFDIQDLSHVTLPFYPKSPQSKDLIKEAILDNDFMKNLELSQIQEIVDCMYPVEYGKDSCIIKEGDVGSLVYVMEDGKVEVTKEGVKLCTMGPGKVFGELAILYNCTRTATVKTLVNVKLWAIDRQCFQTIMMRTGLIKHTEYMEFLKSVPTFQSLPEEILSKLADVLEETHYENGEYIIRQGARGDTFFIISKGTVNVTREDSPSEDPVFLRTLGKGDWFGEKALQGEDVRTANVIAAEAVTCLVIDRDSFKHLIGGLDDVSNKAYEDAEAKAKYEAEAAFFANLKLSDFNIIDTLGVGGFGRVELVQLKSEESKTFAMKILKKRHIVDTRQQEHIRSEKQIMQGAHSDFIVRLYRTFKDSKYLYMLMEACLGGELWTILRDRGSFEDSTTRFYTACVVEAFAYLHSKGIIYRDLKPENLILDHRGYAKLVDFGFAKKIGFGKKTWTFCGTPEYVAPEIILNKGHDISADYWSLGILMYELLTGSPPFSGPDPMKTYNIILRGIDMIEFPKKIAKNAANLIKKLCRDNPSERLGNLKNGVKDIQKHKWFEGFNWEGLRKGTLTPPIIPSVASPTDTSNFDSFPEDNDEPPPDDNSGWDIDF
Description: as §1, §2, §3

T1 sequence (O75116 11-552): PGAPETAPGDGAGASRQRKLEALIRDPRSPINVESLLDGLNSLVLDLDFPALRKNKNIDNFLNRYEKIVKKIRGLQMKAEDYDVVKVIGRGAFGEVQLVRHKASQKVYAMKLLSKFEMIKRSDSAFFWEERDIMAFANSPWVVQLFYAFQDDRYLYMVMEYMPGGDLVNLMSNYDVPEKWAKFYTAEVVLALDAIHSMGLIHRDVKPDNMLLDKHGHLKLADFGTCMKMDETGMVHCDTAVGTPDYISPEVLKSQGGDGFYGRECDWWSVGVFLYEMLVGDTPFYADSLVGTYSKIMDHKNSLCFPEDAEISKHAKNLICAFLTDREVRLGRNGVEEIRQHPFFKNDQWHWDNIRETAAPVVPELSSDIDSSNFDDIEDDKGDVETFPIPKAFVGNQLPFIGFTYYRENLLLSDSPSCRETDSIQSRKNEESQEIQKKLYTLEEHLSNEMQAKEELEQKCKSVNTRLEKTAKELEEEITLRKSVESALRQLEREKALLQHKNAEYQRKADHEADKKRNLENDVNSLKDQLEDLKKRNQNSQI

| SMILES | pIC50 [1] | Selectivity against PKA [2] | Selectivity against PKG [3] |
| --- | --- | --- | --- |
| CCCC(N)C1(CC2CC2)CCC(Oc2cc3cc[nH]c(=O)c3cc2Cl)CC1 (single isomer, unassigned) [Example 14, 6-[4-(1-Amino-butyl)-4-cyclopropylmethyl-cyclohexyloxy]-7-chloro-2H-isoquinolin-1-one] | ≥ 8.00 | >1000 fold | >100 fold |
| CCCC(N)C1(CC2CC2)CCC(Oc2cc3cc[nH]c(=O)c3cc2Cl)CC1 (single isomer, unassigned) [Example 15, 6-[4-(1-Amino-butyl)-4-cyclopropylmethyl-cyclohexyloxy]-7-chloro-2H-isoquinolin-1-one] | 7.00 to 8.00 | >10 fold | >10 fold |
| NC(C1CC1)C1(CC2CC2)CCC(Oc2cc3cc[nH]c(=O)c3cc2Cl)CC1 (single isomer, unassigned) [Example 16, 6-[4-(Amino-cyclopropyl-methyl)-4-cyclopropylmethyl-cyclohexyloxy]-7-chloro-2H-isoquinolin-1-one] | ≥ 8.00 | >300 fold | >300 fold |
| NC(C1CC1)C1(CC2CC2)CCC(Oc2cc3cc[nH]c(=O)c3cc2Cl)CC1 (single isomer, unassigned) [Example 17, 6-[4-(Amino-cyclopropyl-methyl)-4-cyclopropylmethyl-cyclohexyloxy]-7-chloro-2H-isoquinolin-1-one] | 7.00 to 8.00 | >10 fold | >10 fold |
| CC(C)C(N)C1(CC2CC2)CCC(Oc2cc3cc[nH]c(=O)c3cc2Cl)CC1 (single isomer, unassigned) [Example 18, 6-[4-(1-Amino-2-methyl-propyl)-4-cyclopropylmethyl-cyclohexyloxy]-7-chloro-2H-isoquinolin-1-one] | ≥ 8.00 | >300 fold | >300 fold |
| CCC(N)C1(COC(C)C)CCC(Oc2cc3cc[nH]c(=O)c3cc2Cl)CC1 (single isomer, unassigned) [Example 19, 6-[4-(1-Amino-propyl)-4-isopropoxymethyl-cyclohexyloxy]-7-chloro-2H-isoquinolin-1-one] | 7.00 to 8.00 | >1000 fold | >300 fold |
| CC(N)C1(C2CCC2)CCC(Oc2cc3cc[nH]c(=O)c3cc2Cl)CC1 (single isomer, unassigned) [Example 21, 6-[4-(1-Amino-ethyl)-4-cyclobutyl-cyclohexyloxy]-7-chloro-2H-isoquinolin-1-one] | 7.00 to 8.00 | >300 fold | >100 fold |
| CCC(N)C1(C2CCC2)CCC(Oc2cc3cc[nH]c(=O)c3cc2Cl)CC1 (single isomer, unassigned) [Example 22, 6-[4-(1-Amino-propyl)-4-cyclobutyl-cyclohexyloxy]-7-chloro-2H-isoquinolin-1-one] | 7.00 to 8.00 | >300 fold | >100 fold |
| CCC(N)C1(C2CCC2)CCC(Oc2cc3cc[nH]c(=O)c3cc2Cl)CC1 (single isomer, unassigned) [Example 23, 6-[4-(1-Amino-propyl)-4-cyclobutyl-cyclohexyloxy]-7-chloro-2H-isoquinolin-1-one] | 6.00 to 7.00 | >10 fold | >10 fold |
| NC(c1ccccc1)C1(C2CCCC2)CCC(Oc2cc3cc[nH]c(=O)c3cc2Cl)CC1 (single isomer, unassigned) [Example 25, 6-[4-(Amino-phenyl-methyl)-4-cyclopentyl-cyclohexyloxy]-7-chloro-2H-isoquinolin-1-one] | 7.00 to 8.00 | >300 fold | >100 fold |
| CCC(N)C1(C)CCC(Oc2cc3cc[nH]c(=O)c3cc2Cl)CC1 (single isomer, unassigned) [Example 27, 6-[4-(1-Amino-propyl)-4-methyl-cyclohexyloxy]-7-chloro-2H-isoquinolin-1-one] | 7.00 to 8.00 | >1000 fold | >1000 fold |
| CCC(N)C1(CC(C)C)CCC(Oc2cc3cc[nH]c(=O)c3cc2Cl)CC1 (single isomer, unassigned) [Example 28, 6-[4-(1-Amino-propyl)-4-isobutyl-cyclohexyloxy]-7-chloro-2H-isoquinolin-1-one] | 6.00 to 7.00 | >10 fold | >10 fold |
| CCC(N)C1(Cc2ccccc2)CCC(Oc2cc3cc[nH]c(=O)c3cc2Cl)CC1 (single isomer, unassigned) [Example 30, 6-[4-(1-Amino-propyl)-4-benzyl-cyclohexyloxy]-7-chloro-2H-isoquinolin-1-one] | 7.00 to 8.00 | >300 fold | >10 fold |
| CC(C)C1(C(N)c2cncs2)CCC(Oc2cc3cc[nH]c(=O)c3cc2Cl)CC1 (single isomer, unassigned) [Example 47, 6-[4-(Amino-thiazol-5-yl-methyl)-4-isopropyl-cyclohexyl-oxy]-7-chloro-2H-isoquinolin-1-one] | 7.00 to 8.00 | >300 fold | >300 fold |
